Our source for the IC50 and EC50 values is ChEMBL document CHEMBL2311445, “Discovery of novel inhibitors of LEDGF/p75-IN protein-protein interactions” (Bioorg Med Chem, 2013).

One may read the IC50 as the concentration that inhibits the measured activity by half. What is called EC50 is the midpoint of the concentration-response curve.

A short description of assay [1]: Inhibition of human Flag-tagged LEDGF interaction to His6-tagged HIV1 integrase expressed in Escherichia coli BL21 (DE3) preincubated for 20 mins measured after 1 hr by AlphaScreen proximity luminescent assay.
The subject of assay [2] is Human immunodeficiency virus 1. Kind of assay: Antiviral activity against HIV1 3B infected in human MT4 cells assessed as inhibition of virus-induced cytopathic effect by MTT assay. In kind it is functional, organism-based. The settings on record: Human immunodeficiency virus 1, 3B. A general note: Cytopathic effects are the visible damage that an infection or toxin causes in cultured cells.

Assay [3] concerns the target T1, Human immunodeficiency virus type 1 integrase (Human immunodeficiency virus 1, UniProt Q7ZJM1). The assay is described as follows: Inhibition of wild type HIV1 integrase strand transfer activity using 5'-end 32P-labeled linear oligonucleotide as substrate preincubated for 30 mins.
For assay [4], the target named is T1, Human immunodeficiency virus type 1 integrase. Kind of assay: Inhibition of wild type HIV1 integrase 3'-processing activity using 5'-end 32P-labeled linear oligonucleotide as substrate preincubated for 30 mins.
Another assay deals with HCT-116. The assay is described as follows: Cytotoxicity against human HCT116 p53 +/+ and -/- cells after 72 hrs by MTT assay. It is filed as cell-based. The conditions noted are these: HCT-116, 72 h. For orientation: Tetrazolium assays rely on reduction of a dye to a coloured formazan, in cell work by metabolically active cells.

T1 sequence (Q7ZJM1 whole entry): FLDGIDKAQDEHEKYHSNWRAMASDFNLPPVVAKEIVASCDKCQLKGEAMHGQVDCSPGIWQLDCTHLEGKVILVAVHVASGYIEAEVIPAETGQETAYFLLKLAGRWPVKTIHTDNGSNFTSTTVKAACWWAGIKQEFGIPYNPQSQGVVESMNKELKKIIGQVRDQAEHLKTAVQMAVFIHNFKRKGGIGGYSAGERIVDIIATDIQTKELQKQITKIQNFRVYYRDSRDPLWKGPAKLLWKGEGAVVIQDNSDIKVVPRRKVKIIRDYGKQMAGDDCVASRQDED

As to `COc1cc(Br)cc(/C=N/NC(=O)c2ccccn2)c1O`, the 50% inhibitory concentration (IC50) in assay [1] was 1.3 µM; in assay [2], more than 22 µM; in assay [3], 13 µM; in assay [4], 17 µM.

On to `O=C(CP(=O)(c1ccccc1)c1ccccc1)N/N=C/c1cc(Br)cc(Br)c1O`, for which the IC50 is 50 µM in assay [1], 100 µM in assay [3] and 100 µM in assay [4]. This molecule also came in with a 50% effective concentration (EC50) in the assay on HCT-116 of 3.3 µM.

`O=C(N/N=C/c1ccc(Cl)cc1Cl)c1n[nH]c2c1CCC2` registered an IC50 in assay [1] of more than 50 µM. The same molecule came in with an EC50 with HCT-116 of less than 1 µM.

For the molecule `O=C(N/N=C/c1c(O)ccc2ccccc12)c1ccncc1`, the figures for the 50% inhibitory concentration (IC50) in assay [1], in assay [3] and in assay [4] were 6 µM, more than 100 µM and more than 100 µM, respectively.

Consider `O=C(N/N=C/c1cccnc1)C1=NNC2CCCCC12` (configuration not stated), for which the values for the IC50 in assay [1] and in assay [2] were more than 50 µM and more than 20 µM, respectively. This molecule came in with a concentration for a half-maximal effect (EC50) in the assay on HCT-116 of 5 µM.

Regarding `C/C(=N\Nc1ccc(S(=O)(=O)Nc2ccccc2)cc1[N+](=O)[O-])c1cc(O)ccc1O`, the IC50 in assay [1] was 13 µM; in assay [2], more than 28 µM; in assay [3], more than 100 µM; in assay [4] it was more than 100 µM.

In turn, `O=C(Nn1cnc2ccccc2c1=O)c1cnccn1` returned a half-inhibitory concentration (IC50) in assay [1] of 39 µM.

With `COc1ccc(CN2CCCN(c3ccc(S(=O)(=O)Nc4ccccc4)cc3[N+](=O)[O-])CC2)cc1`, the IC50 turned out to be 34 µM in assay [1] and 24 µM in assay [2]. For the same molecule, in the assay on HCT-116, the half-maximal effective concentration (EC50) was more than 10 µM.

`Cc1nc2ccccc2c(=O)n1/N=C/c1ccccc1O` had an IC50 in assay [1] of more than 50 µM. In addition, the EC50 in the assay with HCT-116 is 10 µM.

Turning to `CC(Oc1ccccc1)C(=O)N/N=C/c1ccccc1O` (configuration not stated), the 50% inhibitory concentration (IC50) in assay [1] was 50 µM. The molecule also registered a concentration giving a half-maximal response (EC50) in the assay on HCT-116 of 6.5 µM.

`COc1c(Cl)cc(Cl)cc1/C=N/NC(=O)c1ccncc1`: the IC50 is more than 50 µM in assay [1], more than 100 µM in assay [3] and more than 100 µM in assay [4].

Molecule `NNC(=O)c1cc(-c2ccc(Cl)cc2)n[nH]1` yielded a concentration for half-maximal inhibition (IC50) in assay [1] of more than 50 µM. Further, in the assay on HCT-116, it took 10 µM to reach a half-maximal effect (EC50).

`Cc1nnc(NNC(=O)c2ccccc2)c2c1[nH]c1ccccc12` showed an IC50 in assay [1] of more than 50 µM.

In the case of `CCN(CC)c1ccc(/C=C2\CCC(/C=N/N3CCN(c4ccc(C)cc4)CC3)=C2N2CCOCC2)cc1`, the IC50 in assay [1] was determined as 46 µM. In the assay on HCT-116, this molecule gave an EC50 of 3.3 µM.

For `Cn1cccc1/C=N/N1CCN(Cc2ccccc2)CC1`, the figures for the IC50 in assay [1], in assay [3] and in assay [4] were 32 µM, more than 100 µM and more than 100 µM, respectively. The EC50 in the assay with HCT-116 is more than 10 µM.

With `O=C(COc1ccc(Cl)cc1Cl)N/N=C/c1cc(Br)ccc1O`, the values for the IC50 in assay [1], in assay [3] and in assay [4] were 50 µM, more than 100 µM and more than 100 µM, respectively. This molecule had a concentration for a half-maximal effect (EC50) in the assay on HCT-116 of more than 10 µM.

Turning to `O=C1C(O)=Cc2ccccc2/C1=N\Nc1ccc(Cl)cc1`, the 50% inhibitory concentration (IC50) was 3 µM in assay [1], more than 40 µM in assay [2], 100 µM in assay [3] and more than 100 µM in assay [4].

As for `Cc1[nH]n(-c2ccccc2)c(=O)c1/C=N/Nc1ccc([N+](=O)[O-])cc1`, the half-maximal inhibitory concentration (IC50) in assay [1] was determined as 6 µM. The molecule further yielded a 50% effective concentration (EC50) with HCT-116 of more than 10 µM.

As for `Cc1nnc(Cl)c2c1[nH]c1ccccc12`, the IC50 in assay [1] is more than 50 µM.

As to `Cc1cc(C)nc(N/N=C/c2cccc(O)c2)n1`, the IC50 in assay [1] is more than 50 µM. The EC50 with HCT-116 worked out at 4 µM.

`NNC(=O)Cn1cnc(-c2ccc(F)cc2)c1` had a concentration for half-maximal inhibition (IC50) in assay [1] of more than 50 µM.

In assay [1], `O=[N+]([O-])c1ccccc1/C=N/N1CCN(Cc2ccccc2)CC1` registered a concentration for half-maximal inhibition (IC50) of 24 µM. The molecule further had an EC50 in the assay on HCT-116 of less than 10 µM.

For the molecule `COc1cc(/C=N/Nc2ccc(S(=O)(=O)Nc3ccccc3C(=O)O)cc2[N+](=O)[O-])ccc1O`, the half-inhibitory concentration (IC50) in assay [1] was 25 µM; in assay [2], more than 10 µM; in assay [3] it was more than 100 µM; in assay [4], more than 100 µM.

For the molecule `Cc1sc2ncnc(N/N=C/c3c(O)ccc4ccccc34)c2c1C`, the IC50 was 6 µM in assay [1], 52 µM in assay [3] and 77 µM in assay [4]. For the same molecule, the concentration for a half-maximal effect (EC50) in the assay with HCT-116 was less than 1 µM.

As for `CC/C(=N\NC(=O)c1ccc(F)cc1)c1cc(Cl)cc(Cl)c1O`, the IC50 in assay [1] is more than 50 µM. In the assay with HCT-116, the half-maximal effective concentration (EC50) came out at 2.5 µM.

Consider `FC(F)(F)c1ccccc1/C=N/N1CCN(Cc2ccccc2)CC1`, for which the concentration for half-maximal inhibition (IC50) in assay [1] was 35 µM; in assay [3] it was more than 100 µM; in assay [4] it was more than 100 µM. The molecule also displayed a half-maximal effective concentration (EC50) with HCT-116 of more than 10 µM.

Regarding `CCNc1nc(NCC)nc(C(=O)Nc2ccccc2)n1`, in assay [1], inhibition was half-maximal at 21 µM (IC50).

As for `O=C(N/N=C/c1ccc(O)cc1O)c1ccncc1`, the 50% inhibitory concentration (IC50) is 4 µM in assay [1], more than 100 µM in assay [3] and more than 100 µM in assay [4]. This molecule had a concentration giving a half-maximal response (EC50) in the assay on HCT-116 of 4 µM.

As to `C=CC/N=c1/scc(-c2ccccc2Br)n1/N=C/c1ccccn1`, the 50% inhibitory concentration (IC50) in assay [1] is 23 µM; in assay [2] it was more than 1 µM; in assay [3] it was more than 100 µM; in assay [4] it was more than 100 µM.

Turning to `CCN(CC)c1ccc(/C=C2\CCC(/C=N/N=C/c3c(C)[nH]c4ccccc34)=C2N2CCOCC2)cc1`, in assay [1], the IC50 came out at 40 µM. This molecule also yielded an EC50 with HCT-116 of more than 10 µM.

Turning to `COc1ccc(O)c(/C=N/NC(=O)c2sc3ccccc3c2O)c1`, the half-maximal inhibitory concentration (IC50) in assay [1] was 38 µM; in assay [3], more than 100 µM; in assay [4], more than 100 µM. In the assay with HCT-116, this molecule returned a 50% effective concentration (EC50) of 8 µM.

With `O=C(N/N=C/c1ccc(Cl)cc1Cl)c1cnccn1`, the values for the half-inhibitory concentration (IC50) in assay [1], in assay [3] and in assay [4] were more than 50 µM, more than 100 µM and more than 100 µM, respectively. In the assay on HCT-116, this molecule displayed an EC50 of more than 10 µM.

In assay [1], `COC(=O)c1ccc(/N=N/c2ccc([P+](c3ccccc3)(c3ccccc3)c3ccccc3)cc2)cc1` registered an IC50 of 36 µM. For the same molecule, the EC50 in the assay with HCT-116 was found to be 0.4 µM.

On to `C/C(=N\NC(=O)C1CCCCC1)c1ccccc1O`, for which the IC50 was 93 µM in assay [1] and more than 20 µM in assay [2]. The EC50 in the assay on HCT-116 is more than 10 µM.

Take `O=C(N/N=C/c1cc(Br)ccc1O)c1cccnc1`: the half-inhibitory concentration (IC50) in assay [1] is 4 µM; in assay [2], more than 3 µM; in assay [3], more than 100 µM; in assay [4], more than 100 µM.

Regarding `O=C(N/N=C/c1cc(Br)ccc1O)C1=NNC2CCCCC12` (configuration not stated), the results for the IC50 in assay [1], in assay [3] and in assay [4] were 4 µM, 15 µM and 29 µM, respectively. In addition, in the assay with HCT-116, the concentration for a half-maximal effect (EC50) came to 5 µM.

As to `CC(=O)c1ccc(/N=N/c2ccc(C[P+](c3ccccc3)(c3ccccc3)c3ccccc3)cc2)cc1`, the IC50 is 12 µM in assay [1], more than 100 µM in assay [3] and more than 100 µM in assay [4]. Moreover, it took 0.5 µM to reach a half-maximal effect with HCT-116 (EC50).

On to `Oc1ccc(Br)cc1/C=N/Nc1cccc2cccnc12`, for which the IC50 is more than 50 µM in assay [1], more than 100 µM in assay [3] and more than 100 µM in assay [4].

On to `Cc1occc1C(=O)NN/C=C1/C(=O)N(c2ccccc2Cl)C(=O)c2ccccc21`, for which the results for the concentration for half-maximal inhibition (IC50) in assay [1], in assay [3] and in assay [4] were 8 µM, 75 µM and 90 µM, respectively. Moreover, in the assay on HCT-116, the response was half-maximal at 6.5 µM (EC50).

Regarding `CC/N=c1/scc(-c2ccc(Br)cc2)n1/N=C/c1ccc(O)c(O)c1O`, the IC50 is less than 25 µM in assay [1] and more than 35 µM in assay [2]. The half-maximal effective concentration (EC50) with HCT-116 is more than 10 µM.

For `Oc1ccc(/C=N/N2CCN(c3ccccc3)CC2)cc1O`, the IC50 in assay [1] stood at 16 µM; in assay [3], 31 µM; in assay [4], 69 µM. The same molecule had an EC50 in the assay with HCT-116 of more than 10 µM.

`CC(C)c1ccc(/C=N/N2CCN(Cc3ccccc3)CC2)cc1` returned a half-maximal inhibitory concentration (IC50) in assay [1] of 50 µM. The EC50 with HCT-116 is more than 10 µM.
